Test results from PubChem BioAssay (NCI).
“And” between values parts separate entries of the source, which are not always exact repeats. Equal values may be shown once.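 Growth conditions: 96-well plates. Treatment: test compound, 48 hours, 5 concentrations. Analysis: linear interpolation between bracketing concentrations; unreached endpoints set to highest concentration. GI50 marks 50% less growth. The concentration for full growth arrest is given as TGI.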

Tests used:
Assay in all cases: growth of human tumour cells (NCI), 48 h
SNB-75 CNS = system: SNB-75 CNS
NCI-H522 lung = system: NCI-H522 lung
NCI-H226 lung = system: NCI-H226 lung
CCRF-CEM leukemia = system: CCRF-CEM leukemia
BT-549 breast = system: BT-549 breast
A549 NSCLC = system: A549 NSCLC
TK-10 renal = system: TK-10 renal
SR leukemia = system: SR leukemia
LOX IMVI melanoma = system: LOX IMVI melanoma
HOP-92 NSCLC = system: HOP-92 NSCLC

| Compound | GI50 (SNB-75 CNS) | TGI (SNB-75 CNS) | GI50 (NCI-H522 lung) | TGI (NCI-H522 lung) | GI50 (NCI-H226 lung) | TGI (NCI-H226 lung) | GI50 (CCRF-CEM leukemia) | TGI (CCRF-CEM leukemia) | GI50 (BT-549 breast) | TGI (BT-549 breast) | GI50 (A549 NSCLC) | TGI (A549 NSCLC) | GI50 (TK-10 renal) | TGI (TK-10 renal) | GI50 (SR leukemia) | TGI (SR leukemia) | GI50 (LOX IMVI melanoma) | TGI (LOX IMVI melanoma) | GI50 (HOP-92 NSCLC) | TGI (HOP-92 NSCLC) |
| --- | --- | --- | --- | --- | --- | --- | --- | --- | --- | --- | --- | --- | --- | --- | --- | --- | --- | --- | --- | --- |
| CN1CC=C(c2cc(NC(=O)Nc3ccc(Oc4ccnc(NC(=O)C5CC5)c4)c(F)c3)cc(C(F)(F)F)c2)CC1 | 1.53 µM | 2.95 µM | 0.828 µM | 1.84 µM | 1.35 µM | 4.03 µM | 0.126 µM | 0.702 µM | 1.6 µM | 3.87 µM | 0.247 µM | 1.8 µM | 1.62 µM | 3.91 µM | 0.152 µM | 0.863 µM | 0.181 µM | 0.645 µM | 1.55 µM | 3.58 µM |
| O=C1Nc2ccccc2/C1=C\c1c(-c2ccccc2)nc2sccn12 | 6.74 µM | 28.4 µM | 1.44 µM | 14.6 µM | 4.27 µM | 23 µM | 0.689 µM | 19.8 µM | 3.3 µM | 16.9 µM | 3.5 µM | > 100 µM | 4.61 µM | 17.2 µM | 0.309 µM | 0.976 µM | 2.09 µM | 13.8 µM | 2.14 µM | 7.87 µM |
| Cc1ccccc1C1=C(c2cn(C)c3ccccc23)C(=O)NC1=O | 0.644 µM | > 25 µM | > 22.6 µM | > 25 µM | 11.6 µM | > 25 µM | 9.75 µM | > 25 µM | > 21.8 µM | > 25 µM | 12.2 µM | > 25 µM | > 25 µM | > 25 µM | 7.78 µM | > 25 µM | 14.9 µM | > 25 µM | > 25 µM | > 25 µM |
| CS(=O)(=O)CCNCc1ccc(-c2ccc3ncnc(Nc4ccc(OCc5cccc(F)c5)c(Cl)c4)c3c2)o1 | > 10 µM and 4.33 µM and 8.75 µM | > 10 µM and 35.5 µM and 44.2 µM | 0.28 µM and 0.397 µM and 0.815 µM | > 10 µM and > 100 µM and 28.9 µM | > 10 µM and > 100 µM and 25 µM | > 10 µM and > 100 µM and 86.7 µM | > 10 µM and 2.03 µM and 1.56 µM | > 10 µM and 5.67 µM and 20.7 µM | > 10 µM and 19.7 µM and 7.43 µM | > 10 µM and > 47.5 µM and 44.7 µM | 7.66 µM and 5.68 µM and 5.76 µM | > 10 µM and > 100 µM and 23.5 µM | 0.17 µM and 0.176 µM and 0.0385 µM | > 10 µM and > 100 µM and 11.2 µM | 2.75 µM and 2.57 µM and 2.28 µM | > 10 µM and 5.8 µM and 11.3 µM | 8.23 µM and 1.79 µM and 4.19 µM | > 10 µM and 3.35 µM and 10.1 µM | 2.17 µM and 18.6 µM and 2.03 µM | > 10 µM and > 100 µM and 14.4 µM |
| COc1cc2c(NCCCCCO)ncnc2c(OC)c1OC | – | > 100 µM | – | > 100 µM | – | > 100 µM | – | > 100 µM | – | > 100 µM | – | > 100 µM | – | > 100 µM | – | > 100 µM | – | > 100 µM | – | > 100 µM |
| Oc1cc(N2CC2)c(O)cc1N1CC1 | 1.14 µM | 2.6 µM | 0.287 µM | 1.48 µM | 1.63 µM | 4.59 µM | 0.556 µM | > 45 µM | 1.84 µM | 5.96 µM | 0.783 µM | 10.7 µM | 1.27 µM | 9.35 µM | 0.159 µM | 4.03 µM | 0.322 µM | 2.42 µM | 2.33 µM | 7.9 µM |
| ClCCCSSCCCCl | – | > 100 µM | – | 65.6 µM | – | > 100 µM | – | > 43.9 µM | – | 57.9 µM | – | > 100 µM | – | > 100 µM | – | > 25.8 µM | – | > 81.9 µM | – | > 72.8 µM |
| CN1CCN(C(=O)[C@@]2(C)CC[C@]3(C)CC[C@]4(C)C(=CC[C@@H]5[C@@]6(C)CCC(=O)NC(C)(C)[C@@H]6CC[C@]54C)[C@@H]3C2)CC1 | 1.57 µM | 3.34 µM | 1.78 µM | 3.75 µM | 4.14 µM | 21.4 µM | 1.58 µM | 4.43 µM | 1.58 µM | 3.28 µM | 2.02 µM | 5.28 µM | 1.8 µM | 3.42 µM | 0.391 µM | 4.47 µM | 1.46 µM | 2.84 µM | 1.05 µM | 3.89 µM |
| COC(=O)C12CCC(C)(C)CC1C1=CCC3C4(C)CC(O)C(O)C(C)(C(=O)OC)C4CCC3(C)C1(CO)CC2 (stereo unspecified) | – | 25.3 µM | – | 35.2 µM | – | 38.5 µM | – | 80.2 µM | – | 28.8 µM | – | 29 µM | – | 33.7 µM | – | 31.4 µM | – | 28.1 µM | – | 29.1 µM |
| COc1cc(-c2cc3ncccc3c3nc(OCCN(C)C)c4cccnc4c23)cc(OC)c1OC | 0.414 µM | 2.2 µM | 0.457 µM | 2.78 µM | 0.623 µM | 2.46 µM | 0.714 µM | 8.09 µM | 0.665 µM | 3.19 µM | 0.346 µM | 1.54 µM | 0.294 µM | 1.39 µM | 0.244 µM | 2.07 µM | 0.275 µM | 1.26 µM | 1.1 µM | 3.2 µM |
| CC(=O)OCC12CN(C#N)C3C4COC(CC41)C1(C(=O)N(C)c4ccccc41)C32 (stereo unspecified) | – | 91.4 µM | – | 24.7 µM | – | 49.5 µM | – | 53 µM | – | 10.5 µM | – | > 100 µM | – | 66.5 µM | – | 68.3 µM | – | 49.1 µM | – | 52.4 µM |
| CC1CCC2C(C)C(=O)OC3OC4(C)CCC1C32OO4 (stereo unspecified) | – | > 97.2 µM | – | > 92.6 µM | > 100 µM | > 100 µM | – | > 100 µM | – | > 100 µM | – | > 100 µM | > 100 µM | > 100 µM | > 100 µM | > 100 µM | – | > 100 µM | > 100 µM | > 100 µM |
| Cc1ccc(-c2nc3nc(-c4ccc(F)cc4)nc(N4CCNCC4)c3o2)cc1 | 11.6 µM | 23.9 µM | 2.18 µM | 6.19 µM | 10.6 µM | 26.7 µM | 1.91 µM | 4.74 µM | 13.6 µM | 30.1 µM | 2.1 µM | 4.74 µM | 2.07 µM | 6.38 µM | 0.323 µM | 1.13 µM | 1.66 µM | 3.07 µM | 4.5 µM | 22.6 µM |
| C[C@H](c1ccc(F)cc1CCCC(=O)O)N(c1cc(F)ccc1F)S(=O)(=O)c1ccc(Cl)cc1 | 29.4 µM | > 91.3 µM | 26 µM | > 93.3 µM | 31 µM | > 100 µM | 19.3 µM | > 69.7 µM | 22.4 µM | 68.8 µM | 28.1 µM | > 100 µM | 55.3 µM | > 100 µM | 30.4 µM | 98.1 µM | 29.2 µM | > 100 µM | 17.9 µM | > 82.5 µM |
| OCc1ccc(-c2csc(-c3ccc(CO)o3)c2)o1 | > 55.3 µM | > 100 µM | 43.6 µM | > 100 µM | 0.165 µM | 0.454 µM | 31.1 µM | > 100 µM | 21.4 µM | > 80.7 µM | 15.3 µM | 64.9 µM | 0.64 µM | > 37.1 µM | 26.8 µM | > 100 µM | 66.5 µM | > 100 µM | 20.4 µM | 86.4 µM |
| Cn1cc(C2=C(c3c4n(c5ccccc35)CCNC4)C(=O)NC2=O)c2ccccc21 | 1.04 µM | 12 µM | 4.65 µM | > 19.1 µM | 13.8 µM | > 25 µM | 8.91 µM | > 25 µM | 16.7 µM | > 25 µM | 11.8 µM | > 25 µM | 11.3 µM | > 25 µM | 3.73 µM | > 25 µM | 11.3 µM | > 25 µM | 11.5 µM | > 25 µM |
| O=C(Cn1c(C(=O)c2ccc(Cl)cc2)nc(-c2ccc(Cl)cc2)c1-c1ccc(Cl)cc1)c1ccccc1 | > 100 µM | > 100 µM | > 100 µM | > 100 µM | > 100 µM | > 100 µM | > 100 µM | > 100 µM | > 100 µM | > 100 µM | > 100 µM | > 100 µM | > 100 µM | > 100 µM | > 100 µM | > 100 µM | > 100 µM | > 100 µM | 12.9 µM | > 100 µM |
| CC1(C)CC(=O)C=C(/C=C/Sc2c(Cl)c(Cl)nc(Cl)c2Cl)C1 | 15.9 µM | 31.5 µM | 6.17 µM | 37 µM | 12.7 µM | 29 µM | – | – | 5.87 µM | 22.3 µM | 15.4 µM | 29.8 µM | 19.6 µM | 35.5 µM | 3.89 µM | > 100 µM | 3.26 µM | 12.9 µM | 16.7 µM | 35.2 µM |
| O=C(CCCn1c2c(sc3ccccc32)c(=O)n2nnc(-c3ccccc3)c12)NCCc1cnc[nH]1 | 1.95 µM | 3.51 µM | 0.0346 µM | 2.79 µM | 4.43 µM | 14.1 µM | 0.0368 µM | – | 6.9 µM | 18.2 µM | – | – | 2 µM | 3.75 µM | 0.356 µM | 5.61 µM | 0.28 µM | 2.49 µM | 6.16 µM | 33 µM |
| CC(c1cc(Cl)ccc1O)c1cc(Cl)ccc1O | 2.49 µM | 11.9 µM | 2.24 µM | 5.24 µM | 12 µM | 43.5 µM | – | – | 4.58 µM | 16.9 µM | 4.15 µM | 18.9 µM | 11.8 µM | 24.7 µM | 2.59 µM | 9.95 µM | 3.97 µM | 17.1 µM | 1.71 µM | 5.35 µM |
| CC1CCCC(C(=O)CC2CC(=O)NC(=O)C2)C1=O (stereo unspecified) | – | > 100 µM | – | – | – | > 100 µM | – | > 100 µM | – | > 100 µM | – | > 100 µM | – | > 100 µM | – | > 100 µM | – | > 100 µM | – | > 100 µM |
